Measured values: PubChem BioAssay AID272 (DTP/NCI, 2004)
Results filed as inconclusive are left out. Residues, ends and D or L forms follow the SMILES beside them. *: point of attachment. Trt = c1ccc(C(c2ccccc2)(c2ccccc2)*)cc1; Cbz = O=C(OCc1ccccc1)*; Bn = c1ccc(C*)cc1; βAla = NCCC(=O)O

System: Lewis lung carcinoma i.m., BDF1 mice, T/C %
Assay: NCI In Vivo Anticancer Drug Screen. Data for tumor model Lewis Lung Carcinoma (intramuscular) in B6D2F1 (BDF1) mice
Summary of the method: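 Tumour-bearing mice were dosed with compound, and either their survival or their tumour size was measured. Results were expressed relative to vehicle-treated controls as T/C.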

In the case of O=C1C(=O)c2ccccc2C(O)=C1CC=C(Cl)Cl, the T/C (endpoint: mean tumor weight (est.), dose: 6.25 mg/kg/injection, schedule: Q01DX011 (ip), vehicle: saline with Tween-80, higher = larger tumour) is reported as 93 % of control, the T/C (endpoint: mean tumor weight (est.), dose: 12.5 mg/kg/injection, schedule: Q01DX011 (ip), vehicle: saline with Tween-80, higher = larger tumour) is reported as 86 % of control and the T/C (endpoint: mean tumor weight (est.), dose: 25.0 mg/kg/injection, schedule: Q01DX011 (ip), vehicle: saline with Tween-80, higher = larger tumour) is reported as 61 % of control. The T/C (endpoint: mean tumor weight (est.), dose: 50.0 mg/kg/injection, schedule: Q01DX011 (ip), vehicle: saline with Tween-80, higher = larger tumour) was 79 % of control, the T/C (endpoint: mean tumor weight, dose: 3.75 mg/kg/injection, schedule: Q01DX011 (oral), vehicle: saline, higher = larger tumour) was 40 % of control and the T/C (endpoint: mean tumor weight, dose: 7.5 mg/kg/injection, schedule: Q01DX011 (ip), vehicle: saline, higher = larger tumour) was 54 % of control. For the same compound, the T/C (endpoint: mean tumor weight, dose: 7.5 mg/kg/injection, schedule: Q01DX011 (oral), vehicle: saline, higher = larger tumour) was 41 % of control, the T/C (endpoint: mean tumor weight, dose: 10.0 mg/kg/injection, schedule: Q01DX011 (ip), vehicle: saline, higher = larger tumour) was 102 % of control and the T/C (endpoint: mean tumor weight, dose: 12.5 mg/kg/injection, schedule: Q01DX011 (ip), vehicle: other, higher = larger tumour) was 71 % of control. For the same compound, the T/C (endpoint: mean tumor weight, dose: 15.0 mg/kg/injection, schedule: Q01DX011 (ip), vehicle: saline, higher = larger tumour) was 43 % of control, the T/C (endpoint: mean tumor weight, dose: 20.0 mg/kg/injection, schedule: Q01DX011 (ip), vehicle: saline, higher = larger tumour) was 91 % of control and the T/C (endpoint: mean tumor weight, dose: 25.0 mg/kg/injection, schedule: Q01DX011 (ip), vehicle: other, higher = larger tumour) was 88 % of control. The T/C (endpoint: mean tumor weight, dose: 30.0 mg/kg/injection, schedule: Q01DX011 (ip), vehicle: saline, higher = larger tumour) was 30 % of control, the T/C (endpoint: mean tumor weight, dose: 40.0 mg/kg/injection, schedule: Q01DX011 (ip), vehicle: saline, higher = larger tumour) was 82 % of control and the T/C (endpoint: mean tumor weight, dose: 50.0 mg/kg/injection, schedule: Q01DX011 (ip), vehicle: other, higher = larger tumour) was 55 % of control. The T/C (endpoint: median survival time, dose: 3.75 mg/kg/injection, schedule: Q01DX011 (oral), vehicle: saline, higher = longer survival) was 100 % of control, the T/C (endpoint: median survival time, dose: 6.25 mg/kg/injection, schedule: Q01DX011 (ip), vehicle: saline with Tween-80, higher = longer survival) was 89 % of control and the T/C (endpoint: median survival time, dose: 7.5 mg/kg/injection, schedule: Q01DX011 (ip), vehicle: saline, higher = longer survival) was 111 % of control. For the same compound, the T/C (endpoint: median survival time, dose: 7.5 mg/kg/injection, schedule: Q01DX011 (oral), vehicle: saline, higher = longer survival) was 101 % of control, the T/C (endpoint: median survival time, dose: 12.5 mg/kg/injection, schedule: Q01DX011 (ip), vehicle: saline with Tween-80, higher = longer survival) was 93 % of control and the T/C (endpoint: median survival time, dose: 15.0 mg/kg/injection, schedule: Q01DX011 (ip), vehicle: saline, higher = longer survival) was 113 % of control. For the same compound, the T/C (endpoint: median survival time, dose: 20.0 mg/kg/injection, schedule: Q01DX011 (ip), vehicle: saline, higher = longer survival) was 87 % of control, the T/C (endpoint: median survival time, dose: 25.0 mg/kg/injection, schedule: Q01DX011 (ip), vehicle: saline with Tween-80, higher = longer survival) was 89 % of control and the T/C (endpoint: median survival time, dose: 30.0 mg/kg/injection, schedule: Q01DX011 (ip), vehicle: saline, higher = longer survival) was 108 % of control.
For COc1cc([C@@H]2c3cc4c(c(O)c3C[C@H]3COC(=O)[C@@H]32)OCO4)cc(OC)c1O, the T/C (endpoint: mean tumor weight (est.), dose: 0.12 mg/kg/injection, schedule: Q01DX011 (ip), vehicle: saline, higher = larger tumour) was 99 % of control, the T/C (endpoint: mean tumor weight (est.), dose: 0.25 mg/kg/injection, schedule: Q01DX011 (ip), vehicle: saline, higher = larger tumour) was 94 % of control and the T/C (endpoint: mean tumor weight (est.), dose: 0.5 mg/kg/injection, schedule: Q01DX011 (ip), vehicle: saline, higher = larger tumour) was 66 % of control.
With CN(C)C(=O)c1cccc(COc2ccc(N3C(N)=NC(N)=NC3(C)C)cc2Cl)c1 the T/C (endpoint: mean tumor weight, dose: 3.13 mg/kg/injection, schedule: Q01DX011 (ip), vehicle: saline, higher = larger tumour) was 66 % of control, the T/C (endpoint: mean tumor weight, dose: 12.5 mg/kg/injection, schedule: Q01DX011 (ip), vehicle: saline, higher = larger tumour) was 66 % of control and the T/C (endpoint: median survival time, dose: 3.13 mg/kg/injection, schedule: Q01DX011 (ip), vehicle: saline, higher = longer survival) was 103 % of control. The T/C (endpoint: median survival time, dose: 12.5 mg/kg/injection, schedule: Q01DX011 (ip), vehicle: saline, higher = longer survival) was 88 % of control.
Nc1nncs1 was tested, and the T/C (endpoint: mean tumor weight, dose: 6.25 mg/kg/injection, schedule: Q01DX011 (ip), vehicle: water, higher = larger tumour) was 87 % of control, the T/C (endpoint: mean tumor weight, dose: 12.5 mg/kg/injection, schedule: Q01DX011 (ip), vehicle: water, higher = larger tumour) was 80 % of control and the T/C (endpoint: mean tumor weight, dose: 25.0 mg/kg/injection, schedule: Q01DX011 (ip), vehicle: water, higher = larger tumour) was 74 % of control. The T/C (endpoint: mean tumor weight, dose: 50.0 mg/kg/injection, schedule: Q01DX011 (ip), vehicle: water, higher = larger tumour) was 36 % of control, the T/C (endpoint: median survival time, dose: 6.25 mg/kg/injection, schedule: Q01DX011 (ip), vehicle: water, higher = longer survival) was 121 % of control and the T/C (endpoint: median survival time, dose: 25.0 mg/kg/injection, schedule: Q01DX011 (ip), vehicle: water, higher = longer survival) was 123 % of control.
For NC(=O)c1cc(N2CC2)c([N+](=O)[O-])cc1[N+](=O)[O-], the T/C (endpoint: mean tumor weight, dose: 10.0 mg/kg/injection, schedule: Q01DX011 (ip), vehicle: saline with Tween-80, higher = larger tumour) was 100 % of control, the T/C (endpoint: mean tumor weight, dose: 20.0 mg/kg/injection, schedule: Q01DX011 (ip), vehicle: saline with Tween-80, higher = larger tumour) was 52 % of control and the T/C (endpoint: mean tumor weight, dose: 40.0 mg/kg/injection, schedule: Q01DX011 (ip), vehicle: saline with Tween-80, higher = larger tumour) was 5 % of control. The T/C (endpoint: median survival time, dose: 10.0 mg/kg/injection, schedule: Q01DX011 (ip), vehicle: saline with Tween-80, higher = longer survival) was 94 % of control, the T/C (endpoint: median survival time, dose: 20.0 mg/kg/injection, schedule: Q01DX011 (ip), vehicle: saline with Tween-80, higher = longer survival) was 116 % of control and the T/C (endpoint: median survival time, dose: 40.0 mg/kg/injection, schedule: Q01DX011 (ip), vehicle: saline with Tween-80, higher = longer survival) was 88 % of control.
CS(=O)(=O)OCCCCOS(C)(=O)=O was tested, and the T/C (endpoint: mean tumor weight, dose: 12.5 mg/kg/injection, schedule: Q01DX011 (ip), vehicle: Klucel (hydroxypropylcellulose) (HPC), higher = larger tumour) was 88 % of control, the T/C (endpoint: mean tumor weight, dose: 25.0 mg/kg/injection, schedule: Q01DX011 (ip), vehicle: Klucel (hydroxypropylcellulose) (HPC), higher = larger tumour) was 109 % of control and the T/C (endpoint: median survival time, dose: 12.5 mg/kg/injection, schedule: Q01DX011 (ip), vehicle: Klucel (hydroxypropylcellulose) (HPC), higher = longer survival) was 89 % of control.
In the case of COC(=O)C(CSC(c1ccccc1)(c1ccccc1)c1ccccc1)NC(=O)C(CSCc1ccccc1)NC(=O)CCNC(=O)OCc1ccccc1 (centres undefined) ({Cbz-βAla}-Cys(Bn)-Cys(Trt)-OMe; configuration not given here), the T/C (endpoint: median survival time, dose: 4.0 mg/kg/injection, schedule: Q01DX009 (ip), vehicle: Klucel (hydroxypropylcellulose) (HPC), higher = longer survival) is reported as 121 % of control, the T/C (endpoint: median survival time, dose: 32.0 mg/kg/injection, schedule: Q01DX009 (ip), vehicle: Klucel (hydroxypropylcellulose) (HPC), higher = longer survival) is reported as 171 % of control and the T/C (endpoint: median survival time, dose: 64.0 mg/kg/injection, schedule: Q01DX009 (ip), vehicle: Klucel (hydroxypropylcellulose) (HPC), higher = longer survival) is reported as 161 % of control.
